Here are results for 2 molecules from publication PMC6130598, “Isolation, characterization, and in silico, in vitro and in vivo antiulcer studies of isoimperatorin crystallized from Ostericum koreanum” (Pharmaceutical Biology, 2016).

The assay addresses jack bean urease (Canavalia ensiformis, UniProt P07374). Briefly: colorimetric urease inhibition assay (phenol/hypochlorite ammonia detection, […] nm). In kind it is biochemical.

As usually defined, the IC50 is the concentration that inhibits the measured activity by half. Read a high IC50 as weaker potency.

jack bean urease, sequence (P07374 whole entry, looked up): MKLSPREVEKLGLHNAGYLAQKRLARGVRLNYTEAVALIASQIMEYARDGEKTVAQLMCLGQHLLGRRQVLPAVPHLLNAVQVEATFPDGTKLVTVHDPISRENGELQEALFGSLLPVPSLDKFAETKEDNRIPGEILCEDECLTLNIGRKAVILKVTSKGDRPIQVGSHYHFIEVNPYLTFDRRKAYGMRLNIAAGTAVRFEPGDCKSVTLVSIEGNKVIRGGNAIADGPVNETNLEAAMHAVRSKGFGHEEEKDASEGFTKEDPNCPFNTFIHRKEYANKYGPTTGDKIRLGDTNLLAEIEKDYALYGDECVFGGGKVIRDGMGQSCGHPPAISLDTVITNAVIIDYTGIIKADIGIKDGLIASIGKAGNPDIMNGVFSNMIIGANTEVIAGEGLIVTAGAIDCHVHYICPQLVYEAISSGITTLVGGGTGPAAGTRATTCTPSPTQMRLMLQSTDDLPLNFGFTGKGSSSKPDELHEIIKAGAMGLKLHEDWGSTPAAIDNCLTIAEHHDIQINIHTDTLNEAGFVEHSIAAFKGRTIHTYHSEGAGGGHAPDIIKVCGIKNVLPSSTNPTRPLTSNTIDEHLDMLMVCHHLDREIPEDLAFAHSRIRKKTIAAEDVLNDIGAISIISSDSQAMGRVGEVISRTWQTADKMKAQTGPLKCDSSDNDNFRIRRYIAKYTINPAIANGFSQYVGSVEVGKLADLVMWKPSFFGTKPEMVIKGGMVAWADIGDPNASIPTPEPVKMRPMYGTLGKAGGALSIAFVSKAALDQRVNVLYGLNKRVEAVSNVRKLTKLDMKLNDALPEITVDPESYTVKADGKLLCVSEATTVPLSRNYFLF

Molecule `CC(C)=CCOc1c2ccoc2cc2oc(=O)ccc12` [isoimperatorin] yielded a half-inhibitory concentration (IC50) of 36.4 µM.

Take `NC(N)=S` [thiourea]: the IC50 worked out at 33.6 µM.
